Source: ChEMBL document CHEMBL2086272, “Anticlastogenic effect in human lymphocytes by the sodium salt of 3,4-secoisopimar-4(18),7,15-trien-3-oic acid” (J Nat Prod, 2012)
The source made the active and inactive calls. No cut-off for these calls is given here.

How the values were obtained:
PBL [1] = assay: Antimutagenic activity in human PBL assessed as inhibition of colcemid-induced frequency of micronucleus per 1000 binucleated lymphocyte cells at 330 uM treated after treatment with colcemid by cytokinesis blocking technique (reference value: 3.33 +/- 0.33 micronucleus frequency/1000 binucleated lymphocyte cells); type: functional
PBL [2] = assay: Cytotoxicity in human PBL assessed as nuclear division index at 1930 uM co-treated with ethyl methanesulfonate (reference value: 1.65 +/- 0.06 nuclear division index); type: cell-based
PBL [3] = assay: Antimutagenic activity in human PBL assessed as inhibition of colcemid-induced frequency of micronucleus per 1000 binucleated lymphocyte cells at 0.054 uM co-treated with colcemid by cytokinesis blocking technique (reference value: 4.00 +/- 0.41 micronucleus frequency/1000 binucleated lymphocyte cells); type: functional
PBL [4] = assay: Cytotoxicity in human PBL assessed as nuclear division index at 330 uM pretreated before ethyl methanesulfonate (reference value: 1.63 +/- 0.11 nuclear division index); type: cell-based
PBL [5] = assay: Cytotoxicity in human PBL assessed as nuclear division index at 1930 uM treated after treatment with ethyl methanesulfonate (reference value: 1.59 +/- 0.08 nuclear division index); type: cell-based
PBL [6] = assay: Antimutagenic activity in human PBL assessed as inhibition of colcemid-induced frequency of micronucleus per 1000 binucleated lymphocyte cells at 0.3 uM co-treated with colcemid by cytokinesis blocking technique (reference value: 4.00 +/- 0.41 micronucleus frequency/1000 binucleated lymphocyte cells); type: functional
PBL [7] = assay: Cytotoxicity in human PBL assessed as nuclear division index at 33 uM co-treated with ethyl methanesulfonate (reference value: 1.65 +/- 0.06 nuclear division index); type: cell-based
PBL [8] = assay: Cytotoxicity in human PBL assessed as nuclear division index at 3.3 uM pretreated before ethyl methanesulfonate (reference value: 1.63 +/- 0.11 nuclear division index); type: cell-based
PBL [9] = assay: Antimutagenic activity in human PBL assessed as inhibition of ethyl methanesulfonate-induced frequency of micronucleus per 1000 binucleated lymphocyte cells at 3.3 uM treated after treatment with ethyl methanesulfonate by cytokinesis blocking technique (reference value: 3.33 +/- 0.33 micronucleus frequency/1000 binucleated lymphocyte cells); type: functional
PBL [10] = assay: Cytotoxicity in human PBL assessed as nuclear division index at 33 uM pretreated before colcemid (reference value: 1.63 +/- 0.11 nuclear division index); type: cell-based
PBL [11] = assay: Cytotoxicity in human PBL assessed as nuclear division index at 0.3 uM pretreated before colcemid (reference value: 1.63 +/- 0.11 nuclear division index); type: cell-based
PBL [12] = assay: Antimutagenic activity in human PBL assessed as inhibition of ethyl methanesulfonate-induced frequency of micronucleus per 1000 binucleated lymphocyte cells at 33 uM pretreated before ethyl methanesulfonate by cytokinesis blocking technique (reference value: 3.33 +/- 0.88 micronucleus frequency/1000 binucleated lymphocyte cells); type: functional
PBL [13] = assay: Antimutagenic activity in human PBL assessed as inhibition of colcemid-induced frequency of micronucleus per 1000 binucleated lymphocyte cells at 330 uM pretreated before colcemid by cytokinesis blocking technique (reference value: 3.33 +/- 0.88 micronucleus frequency/1000 binucleated lymphocyte cells); type: functional, cell-based
PBL [14] = assay: Antimutagenic activity in human PBL assessed as inhibition of colcemid-induced frequency of micronucleus per 1000 binucleated lymphocyte cells at 3.3 uM co-treated with colcemid by cytokinesis blocking technique (reference value: 4.00 +/- 0.41 micronucleus frequency/1000 binucleated lymphocyte cells); type: functional
PBL [15] = assay: Genotoxicity in human PBL assessed as micronucleus frequency at 0.3 to 330 uM; type: toxicity, cell-based
PBL [16] = assay: Antimutagenic activity in human PBL assessed as inhibition of ethyl methanesulfonate-induced frequency of micronucleus per 1000 binucleated lymphocyte cells at 0.3 uM treated after treatment with ethyl methanesulfonate by cytokinesis blocking technique (reference value: 3.33 +/- 0.33 micronucleus frequency/1000 binucleated lymphocyte cells); type: functional
PBL [17] = assay: Cytotoxicity in human PBL assessed as nuclear division index at 3.3 uM treated after treatment with colcemid (reference value: 1.59 +/- 0.08 nuclear division index); type: cell-based
PBL [18] = assay: Antimutagenic activity in human PBL assessed as inhibition of ethyl methanesulfonate-induced frequency of micronucleus per 1000 binucleated lymphocyte cells at 3.3 uM pretreated before ethyl methanesulfonate by cytokinesis blocking technique (reference value: 3.33 +/- 0.88 micronucleus frequency/1000 binucleated lymphocyte cells); type: functional
PBL [19] = assay: Antimutagenic activity in human PBL assessed as inhibition of colcemid-induced frequency of micronucleus per 1000 binucleated lymphocyte cells at 0.054 uM treated after treatment with colcemid by cytokinesis blocking technique (reference value: 3.33 +/- 0.33 micronucleus frequency/1000 binucleated lymphocyte cells); type: functional
PBL [20] = assay: Antimutagenic activity in human PBL assessed as inhibition of ethyl methanesulfonate-induced frequency of micronucleus per 1000 binucleated lymphocyte cells at 330 uM treated after treatment with ethyl methanesulfonate by cytokinesis blocking technique (reference value: 3.33 +/- 0.33 micronucleus frequency/1000 binucleated lymphocyte cells); type: functional
PBL [21] = assay: Cytotoxicity in human PBL assessed as nuclear division index at 33 uM treated after treatment with ethyl methanesulfonate (reference value: 1.59 +/- 0.08 nuclear division index); type: cell-based
PBL [22] = assay: Cytotoxicity in human PBL assessed as nuclear division index at 330 uM co-treated with ethyl methanesulfonate (reference value: 1.65 +/- 0.06 nuclear division index); type: cell-based
PBL [23] = assay: Cytotoxicity in human PBL assessed as nuclear division index at 3.3 uM co-treated with ethyl methanesulfonate (reference value: 1.65 +/- 0.06 nuclear division index); type: cell-based
PBL [24] = assay: Antimutagenic activity in human PBL assessed as inhibition of ethyl methanesulfonate-induced frequency of micronucleus per 1000 binucleated lymphocyte cells at 33 uM co-treated with ethyl methanesulfonate by cytokinesis blocking technique (reference value: 4.00 +/- 0.41 micronucleus frequency/1000 binucleated lymphocyte cells); type: functional
PBL [25] = assay: Antimutagenic activity in human PBL assessed as inhibition of ethyl methanesulfonate-induced frequency of micronucleus per 1000 binucleated lymphocyte cells at 1930 uM treated after treatment with ethyl methanesulfonate by cytokinesis blocking technique (reference value: 3.33 +/- 0.33 micronucleus frequency/1000 binucleated lymphocyte cells); type: functional
PBL [26] = assay: Antimutagenic activity in human PBL assessed as inhibition of colcemid-induced frequency of micronucleus per 1000 binucleated lymphocyte cells at 3.3 uM treated after treatment with colcemid by cytokinesis blocking technique (reference value: 3.33 +/- 0.33 micronucleus frequency/1000 binucleated lymphocyte cells); type: functional
PBL [27] = assay: Cytotoxicity in human PBL assessed as nuclear division index at 0.3 to 330 uM; type: cell-based
PBL [28] = assay: Cytotoxicity in human PBL assessed as nuclear division index at 0.054 uM treated after treatment with colcemid (reference value: 1.59 +/- 0.08 nuclear division index); type: cell-based
PBL [29] = assay: Antimutagenic activity in human PBL assessed as inhibition of colcemid-induced frequency of micronucleus per 1000 binucleated lymphocyte cells at 330 uM co-treated with colcemid by cytokinesis blocking technique (reference value: 4.00 +/- 0.41 micronucleus frequency/1000 binucleated lymphocyte cells); type: functional

SMILES: C=C[C@@]1(C)CC[C@H]2C(=CC[C@@H](C(=C)C)[C@]2(C)CCC(=O)[O-])C1.[Na+]
- Activity (PBL [1]): 12.5
- Activity (PBL [2]): 1.55
- Activity (PBL [3]): 24.78
- Activity (PBL [4]): 1.28
- Activity (PBL [5]): 1.41
- Activity (PBL [6]): 21.5
- Activity (PBL [7]): 1.53
- Activity (PBL [8]): 1.49
- Activity (PBL [9]): 19.75
- Activity (PBL [10]): 1.31
- Activity (PBL [11]): 1.44
- Activity (PBL [12]): 3.75
- Activity (PBL [13]): inactive
- Activity (PBL [14]): 21.25
- Activity (PBL [15]): Non-toxic
- Activity (PBL [16]): 19.25
- Activity (PBL [17]): 1.58
- Activity (PBL [18]): 5.75
- Activity (PBL [19]): 12.25
- Activity (PBL [20]): 20
- Activity (PBL [21]): 1.36
- Activity (PBL [22]): 1.63
- Activity (PBL [23]): 1.58
- Activity (PBL [24]): 5.5
- Activity (PBL [25]): 20.14
- Activity (PBL [26]): 12.25
- Activity (PBL [27]): Non-toxic
- Activity (PBL [28]): 1.65
- Activity (PBL [29]): 20.25
